Data taken from patent US20140309974A1 (priority 2013, published 2014).

Legend:
[1] = test system: HSV-1 KOS strain expressing green fluorescent protein (GFP); experiment: HSV-1 (KOS, GFP reporter) infection of NIH 3T3 cells, flow cytometry of GFP-positive cells; format: cell-based, herpes simplex virus-1 on NIH 3T3 cells; settings: for antiviral effect on HSV-1 infection (in words) / percentage of infected (GFP-positive) cells after treatment: NIH 3T3 cells; for antiviral effect on HSV-1 infection (in words): HSV-1 KOS GFP, flow cytometry / fluorescence images; for percentage of infected (GFP-positive) cells after treatment: MOI about 0.1, about 16 hours, no drug gives about 60%
Protocol: Cell culture: NIH 3T3 cells were grown on 15 cm plates in DMEM supplemented with about 5% Fetalplex and about 1% penicillin/streptomycin and kept in an about 37° C. incubator with about 5% CO2. To propagate cells, the experiments involved plating 107 on each […] plate and splitting the cells every 24 hours. For each experimental iteration, the experiments plated 2×10^5 cells/well in a 24-well plate. To minimize variance generated from different batches of cells, the trial group and crossover group were tested and compared using the same batch of cells for each iteration.
Viral infection: HSV-1 KOS strain expressing green fluorescent protein (GFP) in frame with the ICPO protein between amino acids 104 and 105 was used. The virus was prepared by propagation of virus on a confluent monolayer of Vero cells. Supernatants from infected cells were collected and centrifuged to separate cell debris. The cell pellet in residual medium was frozen and thawed three times at about −80° C. and about 37° C., respectively. The residual supernatant was then pooled together with the original supernatant, and viral titers were determined by a standard plaque assay on Vero cell monolayers. Multiplicity of infection (MOI) of about 0.1 was used throughout except as indicated. To control MOI, cells, virus, and drug combinations were added at the same time and incubated at about 37° C. After about 17 hours, culture medium was aspirated, and cells were detached with PBS-EDTA treatment at about 37° C. for about 5 minutes. Detached cells were transferred to flow cytometry tubes, pelleted, and re-suspended in about 1.6% PFA and kept at about 4° C. until analysis. A BD FACS Canto II was used for flow cytometry analysis.
HSV-1 infectious disease model: HSV-1 infection on an NIH 3T3 fibroblast cell line was used as an in vitro model system to search for new therapeutic drug combinations. The antiviral drugs that are used in the therapeutic model include three antiviral cytokines (IFN-α, IFN-β, and IFN-γ), ribavirin, acyclovir, and TNF-α. Virus-infected cells were treated with single drugs or drug combinations and cultured for about 16 hours. The HSV-1 strain used to infect the NIH 3T3 cells encodes a GFP reporter in infected cells, allowing flow cytometric analysis of cells to measure the rate and extent of infection, because the fluorescence intensity of GFP correlated to the presence of virus. Determination of efficacy of drug treatments was made by comparing the number of GFP-negative non-infected cells in the absence or presence of drug treatment. This value was considered the antiviral readout of a drug treatment.
The infectious dose of HSV-1 used (MOI: number of infectious virions per cell) is an important parameter when evaluating the outcome of potential therapies. […] An MOI of about 0.1 was used throughout the studies.

[2] = high doses of ribavirin; cited from earlier work

Nc1nc2c(ncn2COCCO)c(=O)[nH]1 [acyclovir]
viral infection over incubation time, day 1 to day 4 (in words) ([1]; HSV-1-infected cells cultured 1 day to 4 days in presence of drug, flow cytometry): remained constant as time increased | antiviral effect on HSV-1 infection (in words) [1]: reduced the infection rate, though a large percentage of cells were infected despite drug treatment | percentage of infected (GFP-positive) cells after treatment [1]: about 15%

TNF-α
antiviral effect on HSV-1 infection (in words) [1]: potentiated HSV-1 infection, resulting in more infected cells than the non-treated control

NC(=O)c1ncn([C@@H]2O[C@H](CO)[C@@H](O)[C@H]2O)n1 [ribavirin]
reported side effects [2]: cause anemia, to be teratogenic in some animal tests, and to inhibit DNA synthesis in a dosage dependent manner | percentage of infected (GFP-positive) cells after treatment [1]: about 5%
